Experiment [1] addresses T1, LasR (Pseudomonas aeruginosa, UniProt P25084). The settings on record: in E. coli, related reporter constructs; cited from earlier work.
Experiment [2] concerns the target T1, LasR. As to conditions: in P. aeruginosa, related reporter constructs; cited from earlier work.
In experiment [3] the target is T1, LasR. The experiment is classed as cell-based, P. aeruginosa. As to conditions: for Fold change of IC50: IC50 in PAO-JP2 vs PAO-JG21.
Experiment [4] concerns wild-type P. aeruginosa. The settings on record: cited from earlier work.
The target in experiment [5] is T1, LasR. Briefly: LasR competitive antagonism reporter assay in pump-mutant PAO-JG21. The settings on record: PAO-JG21, 25 µg/mL PAβN. Type of experiment: cell-based, P. aeruginosa. (A reporter such as luciferase makes a cellular process visible.)

Values joined by “and” are separate entries in the source; they are usually repeats but may differ in a detail not shown here. Equal values may be shown once. Read-outs that look alike come from different tables or passages of the source.

T1 sequence (P25084 whole entry): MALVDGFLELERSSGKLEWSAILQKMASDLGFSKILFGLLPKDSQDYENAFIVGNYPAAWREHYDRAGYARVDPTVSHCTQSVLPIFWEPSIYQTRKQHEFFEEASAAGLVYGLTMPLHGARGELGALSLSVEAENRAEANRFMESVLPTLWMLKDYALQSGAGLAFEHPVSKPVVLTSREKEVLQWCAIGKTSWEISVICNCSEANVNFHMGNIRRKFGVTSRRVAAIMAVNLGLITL

As for `CCCCCCCCCC(=O)CC(=O)Nc1ccccc1` [3-oxo-C12-aniline], the “inhibition of LasR activity” value is 55% in experiment [1] and 30% in experiment [2]. Moreover, the “Fold change of IC50” value in experiment [3] is 6.5. Further, in experiment [4], the “inhibition of pyocyanin production” value was “strongly inhibiting pyocyanin production”.
In the case of `Cc1cc2nc(N)[nH]c2cc1C` [DMABI, 5,6-dimethyl-2-aminobenzimidazole], the “effect of pump inhibitor PAβN on LasR inhibitory potency” value in experiment [5] is reported as “no effect”; in experiment [3] (PAO-JP2, 25 µg/mL PAβN), “no effect”. Further, in experiment [3], the “Fold change of IC50” value is on record as 1.6. The “maximum inhibition of LasR activity” value in experiment [3] (PAO-JP2 harboring plasI-LVAgfp, dose-response (Figure S-14)) was ~ 40% and 40%.

These data come from publication PMC3969711 (Chembiochem : a European journal of chemical biology, 2014).
